Assay [1] concerns the target Cruzipain (Trypanosoma cruzi) (UniProt P25779). The assay can be described thus: Inhibition of Trypanosoma cruzi cruzain at 1 uM after 5 mins.
Another assay addresses Cruzipain (Trypanosoma cruzi, UniProt P25779).
A further assay addresses Rhodesain (Trypanosoma brucei rhodesiense, UniProt Q95PM0).
Assay [2] addresses T1, Cathepsin B-like cysteine protease (Trypanosoma brucei, UniProt Q6R7Z5).
T1 sequence (Q6R7Z5 whole entry): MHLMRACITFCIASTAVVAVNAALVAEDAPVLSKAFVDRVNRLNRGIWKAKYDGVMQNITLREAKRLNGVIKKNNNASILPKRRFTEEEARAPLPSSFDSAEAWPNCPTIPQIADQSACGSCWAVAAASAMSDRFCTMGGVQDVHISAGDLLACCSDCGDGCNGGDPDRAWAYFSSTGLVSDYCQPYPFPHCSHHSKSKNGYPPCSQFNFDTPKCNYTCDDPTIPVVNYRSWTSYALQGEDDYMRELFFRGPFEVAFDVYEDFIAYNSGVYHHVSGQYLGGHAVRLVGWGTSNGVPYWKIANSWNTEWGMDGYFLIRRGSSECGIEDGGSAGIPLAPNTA

The target of assay [3] is Rhodesain (Trypanosoma brucei rhodesiense) (UniProt Q95PM0).
For the next assay, the system named is Jurkat. The assay can be described thus: cells. Particulars: Homo sapiens.
Assay [4] concerns Trypanosoma brucei brucei. The assay can be described thus: microbe, parasite or virus in culture. Particulars: Jurkat.

SMILES strings stand for the structures. Bounds are passed on as bounds.

Rhodesain, sequence (Q95PM0 whole entry): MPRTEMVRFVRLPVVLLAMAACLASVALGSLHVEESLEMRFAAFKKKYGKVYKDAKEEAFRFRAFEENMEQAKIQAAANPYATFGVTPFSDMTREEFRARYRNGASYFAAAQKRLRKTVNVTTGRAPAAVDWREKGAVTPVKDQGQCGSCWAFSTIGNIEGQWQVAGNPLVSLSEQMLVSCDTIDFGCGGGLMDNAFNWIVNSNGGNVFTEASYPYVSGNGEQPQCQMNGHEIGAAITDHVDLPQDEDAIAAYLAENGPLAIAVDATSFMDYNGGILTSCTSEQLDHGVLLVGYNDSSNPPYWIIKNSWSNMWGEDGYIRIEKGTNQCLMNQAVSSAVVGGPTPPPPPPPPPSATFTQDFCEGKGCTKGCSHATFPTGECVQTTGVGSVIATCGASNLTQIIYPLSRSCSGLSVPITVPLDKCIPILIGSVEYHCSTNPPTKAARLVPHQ
Rhodesain (Trypanosoma brucei rhodesiense), sequence (Q95PM0 1-450): as the sequence (Q95PM0 whole entry) above
Cruzipain, sequence (P25779 whole entry): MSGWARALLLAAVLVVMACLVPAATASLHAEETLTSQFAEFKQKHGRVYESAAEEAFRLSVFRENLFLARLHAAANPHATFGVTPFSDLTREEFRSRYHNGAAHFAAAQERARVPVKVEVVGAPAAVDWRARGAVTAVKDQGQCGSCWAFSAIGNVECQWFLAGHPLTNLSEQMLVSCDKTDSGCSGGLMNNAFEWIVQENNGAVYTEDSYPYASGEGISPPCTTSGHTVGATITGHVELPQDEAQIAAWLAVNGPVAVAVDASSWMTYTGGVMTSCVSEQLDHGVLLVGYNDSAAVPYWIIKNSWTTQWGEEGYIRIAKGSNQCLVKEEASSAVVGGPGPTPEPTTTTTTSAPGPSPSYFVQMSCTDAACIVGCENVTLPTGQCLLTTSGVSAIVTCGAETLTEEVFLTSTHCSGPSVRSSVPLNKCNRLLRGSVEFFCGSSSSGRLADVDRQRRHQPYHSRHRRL
Cruzipain (Trypanosoma cruzi), sequence (P25779 123-467 limits assumed): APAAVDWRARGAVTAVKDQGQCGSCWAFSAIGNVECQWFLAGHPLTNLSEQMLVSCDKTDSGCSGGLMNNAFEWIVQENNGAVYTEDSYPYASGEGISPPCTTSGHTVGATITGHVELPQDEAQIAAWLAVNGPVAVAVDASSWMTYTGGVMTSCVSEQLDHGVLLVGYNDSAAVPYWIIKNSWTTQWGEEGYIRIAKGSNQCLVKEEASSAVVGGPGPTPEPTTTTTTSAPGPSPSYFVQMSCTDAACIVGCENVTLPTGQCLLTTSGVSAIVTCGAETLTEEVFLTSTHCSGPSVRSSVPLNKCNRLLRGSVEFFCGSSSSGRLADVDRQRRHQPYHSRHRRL

`CC(C)(C)c1cc(C(=O)N[C@H](/C=C/S(=O)(=O)c2ccccc2)CCc2ccccc2)n(Cc2ccccc2)n1`: the inhibition in assay [1] is 2%.
Consider `O=C(N[C@H](/C=C/S(=O)(=O)c1ccccc1)CCc1ccccc1)[C@@H]1CCCC[C@H]1C(=O)c1ccc(Cl)cc1`, for which the IC50 against Cruzipain turned out to be 0.05 µM; against Rhodesain, 0.1 µM; in assay [2], 16 µM. The compound further came in with a Ki at Rhodesain of 0.8 µM. The compound further yielded a Kinact in assay [3] of 0.00051 s⁻¹.
With `Cc1nc(-c2cccnc2)sc1C(=O)N[C@H](/C=C/S(=O)(=O)c1ccccc1)CCc1ccccc1`, the IC50 against Cruzipain was 2 µM; against Rhodesain, 0.03 µM; in assay [2] it was greater than 100 µM; in the assay on Jurkat it was 98 µM. The GI50 in assay [4] stood at 20 µM.
Take `O=C(N[C@H](/C=C/S(=O)(=O)c1ccccc1)CCc1ccccc1)c1cc(-c2cccnc2)no1`: the IC50 on Cruzipain was 1 µM; at Rhodesain it was 0.01 µM; in assay [2], greater than 100 µM; in the assay with Jurkat, greater than 100 µM. This compound came in with a 50% growth inhibitory concentration (GI50) in assay [4] greater than 100 µM.
Take `Cc1nc(-c2ccccc2)sc1C(=O)N[C@H](/C=C/S(=O)(=O)c1ccccc1)CCc1ccccc1`: the half-maximal inhibitory concentration (IC50) at Cruzipain is 10 µM; at Rhodesain, less than 0.006 µM; in assay [2], greater than 100 µM; with Jurkat, greater than 100 µM. Also, on Rhodesain, the Ki is 0.32 µM. The Kinact in assay [3] was found to be 0.0018 s⁻¹. For the same compound, in assay [4], the GI50 is greater than 100 µM. The inhibition in assay [1] is less than 5%.
For `O=C(N[C@H](/C=C/S(=O)(=O)c1ccccc1)CCc1ccccc1)[C@H]1CCCC[C@@H]1C(=O)c1ccc(Cl)cc1`, the IC50 is greater than 100 µM on Cruzipain, 56 µM at Rhodesain and greater than 100 µM in assay [2]. This compound returned a Ki at Rhodesain of 4.9 µM. The Kinact in assay [3] came to 0.0007 s⁻¹.
Take `O=C(N[C@H](/C=C/S(=O)(=O)c1ccccc1)CCc1ccccc1)c1cc(-c2ccncc2)no1`: the IC50 against Cruzipain was 5 µM; on Rhodesain it was 0.05 µM; in assay [2], greater than 100 µM; with Jurkat it was greater than 100 µM. Further, on Rhodesain, the Ki is 16.2 µM. The Kinact in assay [3] worked out at 0.0091 s⁻¹. The compound further returned a GI50 in assay [4] of 10 µM. Further, the inhibition in assay [1] is less than 5%.
As for `O=C(N[C@H](/C=C/S(=O)(=O)c1ccccc1)CCc1ccccc1)c1ccccc1C(=O)c1ccc(Cl)cc1`, in assay [1], the inhibition came out at 3%.
Turning to `O=C(N[C@H](/C=C/S(=O)(=O)c1ccccc1)CCc1ccccc1)c1cc(-c2ccccc2)no1`, the IC50 at Cruzipain was 2 µM; on Rhodesain it was 0.01 µM; in assay [2], 40 µM; with Jurkat, greater than 100 µM. The same compound came in with a Ki at Rhodesain of 13 µM. Besides, in assay [3], the Kinact worked out at 0.0031 s⁻¹. Moreover, in assay [4], the GI50 is greater than 100 µM.
In assay [1], `Cc1onc(-c2ccc(F)cc2)c1C(=O)N[C@H](/C=C/S(=O)(=O)c1ccccc1)CCc1ccccc1` returned an inhibition of 12.5%.
In turn, `CN1CCN(C(=O)N[C@@H](Cc2ccccc2)C(=O)N[C@H](/C=C/S(=O)(=O)c2ccccc2)CCc2ccccc2)CC1` [K-777] displayed an IC50 in assay [2] of 4 µM. This compound displayed a GI50 in assay [4] of 7 µM.
For the compound `O=C(N[C@H](/C=C/S(=O)(=O)c1ccccc1)CCc1ccccc1)c1cc(-c2ccccn2)no1`, the IC50 against Cruzipain is 6 µM; at Rhodesain, 0.05 µM; in assay [2], greater than 100 µM; in the assay with Jurkat, greater than 100 µM. For the same compound, the Ki at Rhodesain was determined as 7.4 µM. This compound had a Kinact in assay [3] of 0.0038 s⁻¹. In addition, in assay [4], halving of growth (GI50) required 10 µM. In assay [1], this compound displayed an inhibition of less than 5%.
As for `Cc1nc(-c2cnccn2)sc1C(=O)N[C@H](/C=C/S(=O)(=O)c1ccccc1)CCc1ccccc1`, the IC50 on Cruzipain was 1 µM; against Rhodesain, 0.01 µM; in assay [2] it was greater than 100 µM; with Jurkat, greater than 100 µM. The Ki on Rhodesain came out at 4.77 µM. For the same compound, the Kinact in assay [3] was 0.0079 s⁻¹. The compound further had a 50% growth inhibitory concentration (GI50) in assay [4] of 7 µM.

Values taken from ChEMBL document CHEMBL1154298, “Novel non-peptidic vinylsulfones targeting the S2 and S3 subsites of parasite cysteine proteases” (Bioorg Med Chem Lett, 2009).
